Results reported in patent publication US8394969B2, “Cyclic benzimidazole derivatives useful as anti-diabetic agents” (Merck Sharp & Dohme Corp., priority 2008, dated 2013).
Structures can show the parent of a compound that is named as a salt.

molecular target: recombinant human AMPK complex 1 (containing α1β1γ1) (Homo sapiens, UniProt Q13131+Q9Y478); test: […] (in vitro AMPK activation assay); format: biochemical; settings: read-out: % Maximum AMP Activation of human AMPK Complex 1, recombinant human AMPK complex 1 (α1β1γ1); basal activity subtracted
Sequence (Q13131 whole entry): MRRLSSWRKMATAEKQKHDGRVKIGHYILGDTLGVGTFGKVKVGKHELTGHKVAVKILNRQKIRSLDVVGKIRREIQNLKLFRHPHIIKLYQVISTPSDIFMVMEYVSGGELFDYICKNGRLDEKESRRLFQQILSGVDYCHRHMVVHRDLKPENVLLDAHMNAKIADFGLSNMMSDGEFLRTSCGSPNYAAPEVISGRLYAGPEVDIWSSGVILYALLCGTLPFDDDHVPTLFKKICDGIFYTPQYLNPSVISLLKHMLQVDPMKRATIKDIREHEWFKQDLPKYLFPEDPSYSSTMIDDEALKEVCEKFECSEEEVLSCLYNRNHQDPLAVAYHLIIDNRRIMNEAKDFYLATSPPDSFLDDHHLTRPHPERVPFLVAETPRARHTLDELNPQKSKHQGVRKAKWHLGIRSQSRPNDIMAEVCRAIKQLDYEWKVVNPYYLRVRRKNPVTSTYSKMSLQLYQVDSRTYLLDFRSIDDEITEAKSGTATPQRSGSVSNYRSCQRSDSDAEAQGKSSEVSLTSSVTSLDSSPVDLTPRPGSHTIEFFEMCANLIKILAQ
Sequence (Q9Y478 whole entry): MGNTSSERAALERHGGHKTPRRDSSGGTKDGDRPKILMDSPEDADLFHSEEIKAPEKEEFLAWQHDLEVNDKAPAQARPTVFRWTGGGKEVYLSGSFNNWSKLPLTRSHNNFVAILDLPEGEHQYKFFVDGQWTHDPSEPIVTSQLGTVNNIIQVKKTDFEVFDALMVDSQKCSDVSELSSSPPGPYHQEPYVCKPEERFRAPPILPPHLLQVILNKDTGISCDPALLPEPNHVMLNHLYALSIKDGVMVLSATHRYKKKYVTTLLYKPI
Sequence (P54619 whole entry partner): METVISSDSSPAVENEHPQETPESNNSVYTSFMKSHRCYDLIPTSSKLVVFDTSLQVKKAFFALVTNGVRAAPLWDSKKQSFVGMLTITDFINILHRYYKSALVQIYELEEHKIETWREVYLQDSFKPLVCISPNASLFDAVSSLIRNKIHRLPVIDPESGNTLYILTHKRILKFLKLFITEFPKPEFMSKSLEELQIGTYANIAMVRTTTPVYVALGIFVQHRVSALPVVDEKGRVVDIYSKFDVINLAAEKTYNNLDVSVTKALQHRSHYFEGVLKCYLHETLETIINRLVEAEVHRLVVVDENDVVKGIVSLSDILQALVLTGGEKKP

Row | Structure (SMILES) | Emax [%]
1 | CSc1ccc(-c2cc3nc(Oc4ccc(C)c(C(=O)O)c4)[nH]c3cc2Cl)cc1 [Example 343, Ammonium 5-({6-chloro-5-[4-(methylthio)phenyl]-1H-benzimidazol-2-yl}oxy)-2-methylbenzoate] | > 80

same assay, conditions: recombinant human AMPK complex 1 (α1β1γ1); basal activity subtracted; read-out: % Maximum AMP Activation of human AMPK Complex 1

Row | Structure (SMILES) | Emax [%]
2 | Cc1ccc(Oc2nc3cc(-c4ccc(-c5ccc(=O)n(C(F)F)c5)cc4)c(Cl)cc3[nH]2)cc1C(=O)O [Example 162, 5-{6-Chloro-5-[4-(1-difluoromethyl-6-oxo-1,6-dihydro-pyridin-3-yl)-phenyl]1H-benzoimidazol-2-yloxy}-2-methyl-benzoic acid] | > 80
3 | COc1ccc(-c2cc3nc(Oc4ccc(C)c(C(=O)O)c4)[nH]c3cc2Cl)cc1OC [Example 260, 2-(3-carboxy-4-methylphenoxy)-6-chloro-5-(3,4-dimethoxyphenyl)-1H-3,1-benzimidazol-3-ium trifluoroacetate] | > 80
4 | Cc1ccc(Oc2nc3cc(-c4ccc(N(C)C)c(C(F)(F)F)c4)c(Cl)cc3[nH]2)cc1C(=O)O [Example 295, 2-(3-carboxy-4-methylphenoxy)-6-chloro-5-[4-(dimethylamino)-3-(trifluoromethyl)phenyl]-1H-3,1-benzimidazol-3-ium chloride] | > 80
5 | O=C(O)c1cccc(Nc2nc3cc(-c4ccc(-c5ccccc5O)cc4)c(Cl)cc3[nH]2)c1 [Example 52, 3-[6-Chloro-5-(2′-hydroxy-biphenyl-4-yl)-1H-benzoimidazol-2-ylamino]-benzoic acid] | > 80
6 | Cc1ccc(Oc2nc3cc(-c4ccc(-c5c(C)noc5C)cc4)c(Cl)cc3[nH]2)cc1C(=O)O [Example 204, 5-({6-chloro-5-[4-(3,5-dimethylisoxazol-4-yl)phenyl]-1H-benzimidazol-2-yl}oxy)-2-methylbenzoic acid] | > 80
7 | NC(=O)Nc1cccc(Oc2nc3cc(-c4ccc(-c5ccccc5)cc4)c(Cl)cc3[nH]2)c1 [Example 2, [3-(5-Biphenyl-4-yl-6-chloro-1H-benzoimidazol-2-yloxy)-phenyl]-urea] | > 80
8 | Cc1ccc(Oc2nc3cc(-c4ccc5ccnc(O)c5c4)c(Cl)cc3[nH]2)cc1C(=O)O [Example 238, 5-[6-Chloro-5-(1-hydroxy-isoquinolin-7-yl)-1H-benzoimidazol-2-yloxy]-2-methyl-benzoic acid] | > 80
9 | O=C(O)c1cc(Oc2nc3cc(-c4ccc(-c5ccccc5)cc4)c(Cl)cc3[nH]2)ccc1O [Example 28, 5-(5-Biphenyl-4-yl-6-chloro-1H-benzoimidazol-2-yloxy)-2-hydroxy-benzoic acid] | > 80
10 | Cc1cc(Oc2nc3cc(-c4ccc(-c5ccc(O)nc5)cc4)c(Cl)cc3[nH]2)cc(C(=O)O)c1C [Example 313, 5-{6-Chloro-5-[4-(6-hydroxy-pyridin-3-yl)-phenyl]-1H-benzoimidazol-2-yloxy}-2,3-dimethyl-benzoic acid] | > 80
11 | Cc1ccc(Oc2nc3cc(-c4ccc(C(C)C)c5c4ccn5C)c(Cl)cc3[nH]2)cc1C(=O)O [Example 272, 5-[6-Chloro-5-(7-isopropyl-1-methyl-1H-indol-4-yl)-1H-benzoimidazol-2-yloxy]-2-methyl-benzoic acid] | > 80
12 | Cc1ccc(Oc2nc3cc(-c4ccc5ccn(C)c5c4)c(Cl)cc3[nH]2)cc1C(=O)O [Example 284, 5-[6-Chloro-5-(1-methyl-1H-indol-6-yl)-1H-benzoimidazol-2-yloxy]-2-methyl-benzoic acid] | > 80
13 | Cc1c(Oc2nc3cc(-c4ccc5c(ccn5C)c4)c(Cl)cc3[nH]2)cccc1C(=O)O [Example 218, 3-[6-Chloro-5-(1-methyl-1H-indol-5-yl)-1H-benzoimidazol-2-yloxy]-2-methyl-benzoic acid] | > 80
14 | CC(=O)NS(=O)(=O)c1cccc(Oc2nc3cc(-c4ccc(-c5ccccc5)cc4)c(Cl)cc3[nH]2)c1 [Example 206, N-Acetyl-3-(5-biphenyl-4-yl-6-chloro-1H-benzoimidazol-2-yloxy)-benzenesulfonamide] | > 80
15 | Cc1ccc(Oc2nc3cc(-c4ccc(C(C)N)cc4)c(Cl)cc3[nH]2)cc1C(=O)O (centres unmarked) [Example 293, 1-{4-[2-(3-carboxy-4-methylphenoxy)-6-chloro-1H-benzimidazol-5-yl]phenyl}ethanaminium trifluoroacetate] | > 80
16 | O=C(O)CCc1ccc(Oc2nc3cc(-c4ccc(-c5ccccc5)cc4)c(Cl)cc3[nH]2)cc1 [Example 25, 3-[4-(5-Biphenyl-4-yl-6-chloro-1H-benzoimidazol-2-yloxy)-phenyl]-propionic acid] | > 80
17 | O=C(O)Cc1ccc(Oc2nc3cc(-c4ccc(-c5ccccc5)cc4)c(Cl)cc3[nH]2)cc1 [Example 26, [4-(5-Biphenyl-4-yl-6-chloro-1H-benzoimidazol-2-yloxy)-phenyl]-acetic acid] | > 80
18 | Cc1ccc(Oc2nc3cc(-c4ccc(-c5ccc(C#N)cc5)cc4)c(Cl)cc3[nH]2)cc1C(=O)O [Example 103, 5-[6-Chloro-5-(4′-cyano-biphenyl-4-yl)-1H-benzoimidazol-2-yloxy]-2-methyl-benzoic acid] | > 80
19 | Cc1ccc(Oc2nc3cc(-c4ccc5ccccc5c4)c(Cl)cc3[nH]2)cc1C(=O)O [Example 66, 5-{[6-chloro-5-(2-naphthyl)-1H-benzimidazol-2-yl]oxy}-2-methylbenzoic acid] | > 80
20 | Cc1ccc(Oc2nc3cc(C#Cc4ccncc4)c(Cl)cc3[nH]2)cc1C(=O)O [Example 87, 5-(6-Chloro-5-pyridin-4-ylethynyl-1H-benzoimidazol-2-yloxy)-2-methyl-benzoic acid] | > 80
21 | Cc1ccc(Oc2nc3cc(-c4ccc(-c5ccccn5)cc4)c(Cl)cc3[nH]2)cc1C(=O)O [Example 166, 5-[6-Chloro-5-(4-pyridin-2-yl-phenyl)-1H-benzoimidazol-2-yloxy]-2-methyl-benzoic acid] | > 80
22 | NC(=O)Cc1cccc(Oc2nc3cc(C#Cc4ccccc4)c(Cl)cc3[nH]2)c1 [Example 23, 2-[3-(6-Chloro-5-phenylethynyl-1H-benzoimidazol-2-yloxy)-phenyl]-acetamide] | > 80
23 | Cc1ccc(Oc2nc3cc(-c4ccc5c(c4)n(C)c(=O)n5C)c(Cl)cc3[nH]2)cc1C(=O)O [Example 235, 5-(6-Chloro-1′,3′-dimethyl-2′-oxo-2′,3′-dihydro-1H,1′H-[5,5′]bibenzoimidazolyl-2-yloxy)-2-methyl-benzoic acid] | > 80

same assay, conditions: recombinant human AMPK complex 1 (α1β1γ1); read-out: EC50

Row | Structure (SMILES) | EC50 [nM]
24 | Cc1ccc(Oc2nc3cc(-c4ccc(-c5ccncc5)cc4)c(Cl)cc3[nH]2)cc1C(=O)O [Example 168] | 5
25 | Cc1ccc(Oc2nc3cc(-c4ccc(-c5ccccc5O)cc4)c(F)cc3[nH]2)cc1C(=O)O [Example 232, 5-{[6-fluoro-5-(2′-hydroxybiphenyl-4-yl)-1H-benzimidazol-2-yl]oxy}-2-methylbenzoic acid] | 1

system: ob/ob and db/db mice; test: not given; settings: following 8 weeks of administration; cited from earlier work

Row | Structure (SMILES) | blood glucose reduction [%]
26 | NC(=O)c1ncn([C@@H]2O[C@H](CO)[C@@H](O)[C@H]2O)c1N [AICAR] | 35
